According to patent US12187706B2, “NLRP3 modulators” (INNATE TUMOR IMMUNITY, INC., priority 2019, dated 2025):

How the values were obtained:
Format in all cases: cell-based
human TLR7 = molecular target: T1, human TLR7 (Homo sapiens, UniProt Q9NYK1); assay: In vitro human TLR7 reporter assay (HEK-Blue, NF-kB/AP1-inducible SEAP); details: HEK-Blue TLR7 cells, SEAP reporter; read-out: TLR7 Agonist EC50 value
T1 construct: host or cells: human HEK-Blue cells with NF-kB/AP1-inducible SEAP reporter
T1 sequence (Q9NYK1 27-1049): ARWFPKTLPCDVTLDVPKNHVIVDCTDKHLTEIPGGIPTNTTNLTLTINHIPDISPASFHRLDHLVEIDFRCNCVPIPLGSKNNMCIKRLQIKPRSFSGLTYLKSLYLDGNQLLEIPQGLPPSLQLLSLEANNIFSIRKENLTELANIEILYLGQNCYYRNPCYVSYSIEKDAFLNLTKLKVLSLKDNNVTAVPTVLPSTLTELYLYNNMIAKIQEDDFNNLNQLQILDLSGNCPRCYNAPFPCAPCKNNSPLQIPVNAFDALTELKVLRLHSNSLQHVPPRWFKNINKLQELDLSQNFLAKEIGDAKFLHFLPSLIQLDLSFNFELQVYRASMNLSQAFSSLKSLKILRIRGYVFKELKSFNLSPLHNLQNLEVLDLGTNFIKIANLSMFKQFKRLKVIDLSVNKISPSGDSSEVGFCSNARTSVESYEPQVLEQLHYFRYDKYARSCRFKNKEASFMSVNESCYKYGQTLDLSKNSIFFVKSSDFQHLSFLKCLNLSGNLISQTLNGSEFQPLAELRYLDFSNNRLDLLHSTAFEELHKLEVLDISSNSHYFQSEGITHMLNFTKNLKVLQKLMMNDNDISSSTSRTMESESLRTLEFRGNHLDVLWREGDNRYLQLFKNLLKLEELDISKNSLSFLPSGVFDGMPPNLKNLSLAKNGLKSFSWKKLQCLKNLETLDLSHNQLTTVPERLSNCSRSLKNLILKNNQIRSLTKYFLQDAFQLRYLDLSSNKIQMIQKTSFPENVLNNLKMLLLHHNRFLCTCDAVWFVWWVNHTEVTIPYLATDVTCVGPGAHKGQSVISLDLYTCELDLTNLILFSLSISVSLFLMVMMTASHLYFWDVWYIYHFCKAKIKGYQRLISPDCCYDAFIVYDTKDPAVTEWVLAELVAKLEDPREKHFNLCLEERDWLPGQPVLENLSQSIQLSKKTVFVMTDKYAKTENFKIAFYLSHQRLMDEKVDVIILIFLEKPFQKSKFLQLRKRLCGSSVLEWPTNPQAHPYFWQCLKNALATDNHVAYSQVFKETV
Description: (§1) In Vitro Human TLR7 and TLR8 Binding Reporter Assays Logarithmically-growing human HEK-Blue cells co-expressing a TLR7 or TLR8 gene and a NF-kB/AP1-inducible SEAP (secreted embryonic alkaline phosphatase; […] Cellular SEAP production is measured using an Envision plate reader instrument thirty minutes after adding freshly-made Quanti-Blue reagent (prepared by following manufacturer instructions; Invivogen, San Diego, CA) to the HEK-Blue TLR Nf-kB-SEAP cell reactions. All EC50 values (half-maximal effective concentration) are determined using proprietary data analysis software.

NLRP3 = molecular target: T2, NLRP3 (Homo sapiens, UniProt Q96P20); assay: Measurement of IL-1β production in PMA-differentiated THP-1 cells (NLRP3 hIL1B)
T2 construct: host or cells: PMA-differentiated THP-1 cells
T2 sequence (Q96P20 whole entry): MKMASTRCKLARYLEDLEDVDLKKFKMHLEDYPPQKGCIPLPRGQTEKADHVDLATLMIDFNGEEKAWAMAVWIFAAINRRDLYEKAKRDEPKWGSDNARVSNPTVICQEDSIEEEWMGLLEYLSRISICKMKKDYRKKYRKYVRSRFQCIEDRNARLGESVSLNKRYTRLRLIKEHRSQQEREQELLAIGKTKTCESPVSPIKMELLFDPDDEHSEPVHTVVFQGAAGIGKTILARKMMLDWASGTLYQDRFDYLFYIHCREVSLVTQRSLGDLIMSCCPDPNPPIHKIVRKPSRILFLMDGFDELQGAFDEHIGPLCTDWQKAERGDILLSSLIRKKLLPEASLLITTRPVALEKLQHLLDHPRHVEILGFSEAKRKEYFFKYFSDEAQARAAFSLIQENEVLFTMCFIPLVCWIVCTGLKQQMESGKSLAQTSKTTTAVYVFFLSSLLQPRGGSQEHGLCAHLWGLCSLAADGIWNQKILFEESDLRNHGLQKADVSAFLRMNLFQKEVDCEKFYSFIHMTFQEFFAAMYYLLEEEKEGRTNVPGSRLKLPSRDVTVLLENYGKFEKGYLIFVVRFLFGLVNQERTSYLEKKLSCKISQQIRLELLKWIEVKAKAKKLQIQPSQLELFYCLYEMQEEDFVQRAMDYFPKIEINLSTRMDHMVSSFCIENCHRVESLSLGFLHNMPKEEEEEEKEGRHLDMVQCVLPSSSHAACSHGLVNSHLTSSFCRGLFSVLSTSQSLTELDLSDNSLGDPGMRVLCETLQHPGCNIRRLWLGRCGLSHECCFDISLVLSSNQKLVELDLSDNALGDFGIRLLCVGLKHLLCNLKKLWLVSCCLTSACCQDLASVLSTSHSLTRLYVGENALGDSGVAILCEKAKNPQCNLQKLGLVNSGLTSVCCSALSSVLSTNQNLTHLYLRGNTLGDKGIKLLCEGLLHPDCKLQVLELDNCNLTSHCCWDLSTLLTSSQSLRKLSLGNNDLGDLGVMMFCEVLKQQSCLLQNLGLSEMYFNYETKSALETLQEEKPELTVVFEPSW
How it was run: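 THP-1 cells differentiated with PMA, then replated in RPMI with 2% FBS and exposed to compound for 4 h (alternative: 2 h; hTRF protocol: 2 h at 37 °C, top concentration 10 μM). Supernatant IL-1β was quantified by ELISA or HTRF. Final DMSO 1%, with vehicle control.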

human TLR8 = molecular target: T3, human TLR8 (Homo sapiens, UniProt Q9NR97); assay: In vitro human TLR8 reporter assay (HEK-Blue, NF-kB/AP1-inducible SEAP); details: at 62.5 μM
T3 construct: host or cells: human HEK-Blue cells with NF-kB/AP1-inducible SEAP reporter
T3 sequence (Q9NR97 27-1041): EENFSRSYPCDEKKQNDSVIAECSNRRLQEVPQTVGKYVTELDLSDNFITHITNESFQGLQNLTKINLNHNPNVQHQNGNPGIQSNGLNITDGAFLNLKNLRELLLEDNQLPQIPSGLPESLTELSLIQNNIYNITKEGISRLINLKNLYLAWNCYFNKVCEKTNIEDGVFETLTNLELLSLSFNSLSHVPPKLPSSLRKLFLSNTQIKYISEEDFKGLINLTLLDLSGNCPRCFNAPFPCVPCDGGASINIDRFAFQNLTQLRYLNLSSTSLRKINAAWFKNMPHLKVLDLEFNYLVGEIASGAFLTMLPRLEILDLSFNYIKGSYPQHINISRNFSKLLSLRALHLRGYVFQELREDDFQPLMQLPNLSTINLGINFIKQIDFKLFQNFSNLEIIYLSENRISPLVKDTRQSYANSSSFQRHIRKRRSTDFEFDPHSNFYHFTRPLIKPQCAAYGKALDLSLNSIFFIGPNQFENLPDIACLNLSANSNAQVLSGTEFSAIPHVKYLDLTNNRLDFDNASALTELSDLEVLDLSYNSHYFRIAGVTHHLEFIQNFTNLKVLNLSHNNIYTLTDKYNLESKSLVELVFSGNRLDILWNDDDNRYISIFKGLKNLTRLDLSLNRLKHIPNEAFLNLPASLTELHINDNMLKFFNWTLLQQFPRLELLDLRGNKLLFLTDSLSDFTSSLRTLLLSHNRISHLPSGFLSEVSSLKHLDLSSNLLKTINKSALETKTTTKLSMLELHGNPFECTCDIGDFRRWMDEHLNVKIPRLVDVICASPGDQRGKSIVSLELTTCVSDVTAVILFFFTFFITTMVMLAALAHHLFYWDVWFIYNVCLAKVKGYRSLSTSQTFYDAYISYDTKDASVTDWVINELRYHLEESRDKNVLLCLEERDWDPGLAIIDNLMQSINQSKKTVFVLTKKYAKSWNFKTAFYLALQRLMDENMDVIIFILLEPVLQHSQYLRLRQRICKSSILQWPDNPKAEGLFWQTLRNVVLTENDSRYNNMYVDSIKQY
Description: as §1

Row | Structure (SMILES) | EC50 (human TLR7) | EC50 (NLRP3) | TLR8 activity (human TLR8)
1 | CCCC(CCO)Nc1nc(N)nc2cc(-c3ccn[nH]3)ccc12 (racemic) [Example 96, rac-3-((2-amino-7-(1H-pyrazol-5-yl)quinazolin-4-yl)amino)hexan-1-ol] | 1000 to 20000 nM | 690 nM | –
2 | CCCCC(CCO)Nc1nc(N)nc2cc(-c3ccn[nH]3)ccc12 (racemic) [Example 99, rac-3-((2-amino-7-(1H-pyrazol-5-yl)quinazolin-4-yl)amino)heptan-1-ol] | 1000 to 20000 nM | 740 nM | –
3 | CCCC(CCO)Nc1nc(N)nc2cc(-c3ccn[nH]3)ccc12 (single isomer, unassigned) [Example 97, 3-((2-amino-7-(1H-pyrazol-5-yl)quinazolin-4-yl)amino)hexan-1-ol] | 1000 to 20000 nM | 710 nM | –
4 | CCCCC(CCO)Nc1nc(N)nc2cc(-c3ccn[nH]3)ccc12 (single isomer, unassigned) [Example 100, 3-((2-amino-7-(1H-pyrazol-5-yl)quinazolin-4-yl)amino)heptan-1-ol] | 1000 to 20000 nM | 450 nM | –
5 | COCC(COC)Nc1nc(N)nc2cc(-c3ccn[nH]3)ccc12 [Example 79] | 20000 to 100000 nM | 1200 nM | –
6 | CCCCNc1nc(N)nc2cc(-c3ccn[nH]3)ccc12 [Example 92] | > 1000 nM | 200 nM | –
7 | CCCCCNc1nc(N)nc2cc(-c3ccn[nH]3)ccc12 [Example 93] | 1000 to 20000 nM | 270 nM | –
8 | CCCCCNc1nc(N)nc2cc(-c3cc[nH]n3)cc(F)c12 [Example 125] | 1000 to 20000 nM | 710 nM | –
9 | Cc1cccc2nc(CNc3nc(N)nc4cc(-c5ccn[nH]5)ccc34)cn12 [Example 161] | – | 2000 nM | –
10 | CN(C)c1ccc(CNc2nc(N)nc3cc(-c4ccn[nH]4)ccc23)nn1 [Example 164, N4-((6-(dimethylamino)pyridazin-3-yl)methyl)-7-(1H-pyrazol-5-yl)quinazoline-2,4-diamine] | – | 1240 nM | –
11 | Cn1c(CCNc2nc(N)nc3cc(-c4ccn[nH]4)ccc23)nc2ccccc21 [Example 165] | – | 4120 nM | < 50%
12 | Nc1nc(NC[C@H]2C[C@@H](O)C2)c2ccc(-c3ccn[nH]3)cc2n1 [Example 166] | – | 810 nM | –
13 | Nc1nc(NC[C@H]2C[C@H](O)C2)c2ccc(-c3ccn[nH]3)cc2n1 [Example 167] | – | 1240 nM | –
14 | CCn1cc(CNc2nc(N)nc3cc(-c4ccn[nH]4)ccc23)cn1 [Example 168] | – | 1280 nM | –
15 | Nc1nc(NCc2cnn(-c3ccccc3)c2)c2ccc(-c3ccn[nH]3)cc2n1 [Example 169] | – | 730 nM | –
16 | Nc1nc(NCc2ncccc2F)c2ccc(-c3ccn[nH]3)cc2n1 [Example 170] | – | 200 nM | –
17 | Nc1nc(NCc2ccccn2)c2ccc(-c3ccn[nH]3)cc2n1 [Example 171] | – | 270 nM | –
18 | COCCN1CCCC1CNc1nc(N)nc2cc(-c3ccn[nH]3)ccc12 (stereo not drawn) [Example 172] | – | 2600 nM | –
19 | CO[C@H]1C[C@H](Nc2nc(N)nc3cc(-c4ccn[nH]4)ccc23)C1 [Example 173] | – | 140 nM | –
20 | Nc1nc(NCc2cnsc2)c2ccc(-c3ccn[nH]3)cc2n1 [Example 174] | – | 180 nM | –

Row | Structure (SMILES) | EC50 (human TLR7) | EC50 (NLRP3) | TLR8 activity (human TLR8)
21 | Nc1nc(NCc2cncs2)c2ccc(-c3ccn[nH]3)cc2n1 [Example 175] | – | 730 nM | –
22 | Nc1nc(N[C@H]2C[C@H](CO)C2)c2ccc(-c3ccn[nH]3)cc2n1 [Example 176] | – | 90 nM | –
23 | Nc1nc(NC2CCC2)c2ccc(-c3ccn[nH]3)cc2n1 [Example 177] | – | 160 nM | –
24 | CC(C)(C)Nc1nc(N)nc2cc(-c3ccn[nH]3)ccc12 [Example 180] | – | 710 nM | –
25 | CC(C)(C)CNc1nc(N)nc2cc(-c3ccn[nH]3)ccc12 [Example 181] | – | 180 nM | –
26 | N#C[C@H]1CC[C@H](Nc2nc(N)nc3cc(-c4ccn[nH]4)ccc23)CC1 [Example 182] | – | 130 nM | –
27 | Nc1nc(NOCCO)c2ccc(-c3ccn[nH]3)cc2n1 [Example 186] | – | 3000 nM | –
28 | Nc1nc(NCc2ccn(-c3ccccn3)n2)c2ccc(-c3ccn[nH]3)cc2n1 [Example 187] | – | 230 nM | –
29 | COc1cnnc(CNc2nc(N)nc3cc(-c4ccn[nH]4)ccc23)c1 [Example 188] | – | 8320 nM | –
30 | Cn1cnc(CNc2nc(N)nc3cc(-c4ccn[nH]4)ccc23)n1 [Example 189] | – | 1410 nM | –
31 | CCn1cc(CNc2nc(N)nc3cc(-c4ccn[nH]4)ccc23)nn1 [Example 190] | – | 4890 nM | –
32 | C[C@]1(O)C[C@@H](Nc2nc(N)nc3cc(-c4ccn[nH]4)ccc23)C1 [Example 191, (cis)-3-((2-amino-7-(1H-pyrazol-5-yl)quinazolin-4-yl)amino)-1-methylcyclobutan-1-ol] | – | 460 nM | –
33 | C[C@]1(O)C[C@H](Nc2nc(N)nc3cc(-c4ccn[nH]4)ccc23)C1 [Example 192, (trans)-3-((2-amino-7-(1H-pyrazol-5-yl)quinazolin-4-yl)amino)-1-methylcyclobutan-1-ol] | – | 370 nM | –
34 | Nc1nc(NC2CC2)c2ccc(-c3cc[nH]n3)cc2n1 [Example 193] | – | 100 nM | –
35 | Nc1nc(NCC2(CN3CCCC3)CC2)c2ccc(-c3cc[nH]n3)cc2n1 [Example 194] | – | 210 nM | –
36 | Nc1nc(NCC2(CN3CCOCC3)CC2)c2ccc(-c3cc[nH]n3)cc2n1 [Example 195] | – | 300 nM | –
37 | COCC1(CNc2nc(N)nc3cc(-c4cc[nH]n4)ccc23)CC1 [Example 196] | – | 230 nM | –
38 | Nc1nc(NCC2(O)CC2)c2ccc(-c3cc[nH]n3)cc2n1 [Example 197] | – | 310 nM | –
39 | Nc1nc(NCC2(CO)CC2)c2ccc(-c3ccn[nH]3)cc2n1 [Example 204] | – | 180 nM | –
